Data from patent US4870160A, “Polypeptides with laminin activity” (Regents of the University of Minnesota, priority 1987, dated 1989).
Peptide text beside a SMILES is read from it.

Key:
[1] = test system: Bovine aortic endothelial cells; experiment: Aortic endothelial cell adhesion assay (Example 5); type: cell-based; settings: 0.1; 1.0; and 10.0 μg/per well adsorbed, 120 minutes at 37° C, FIG. 9
Method: Bovine aortic endothelial cells were isolated according to the following protocol. Aortas were obtained from a local slaughterhouse, washed in cold phosphate buffered saline (PBS) (136 mM NaCl, 2.6 mM KCl, 15.2 mM Na2HP04, pH 7.2) and processed within 2 hours. Crude collagenase (CLS III, 125-145 units per mg dry weight, Cooper Biomedical) was used at 2 mg/ml in Dulbecco's modified Eagle's medium (DMEM) (GIBCO). The vessel was clamped at the distal end, filled with the collagenase-PBS solution and digestion was carried out for 10 minutes. The lumenal contents were harvested, followed by the addition of fresh collagenase for two additional 10-minute periods. The enzyme-cell suspensions were added to an equal volume of DMEM containing 10% fetal bovine serum (FBS) to inhibit the enzyme and spun in a centrifuge at 400×g for 10 minutes. The resulting cell pellet was resuspended in DMEM containing 10% FBS, 100 units/ml of penicillin G, 100 μg/ml of streptomycin and 100 μg/ml of crude fibroblast growth factor. Cells are cultured in 75 cm^2 flasks in a humidified 5% CO2 atmosphere at 37° C. Cultures were fed twice a week with the same medium and cells were used in assays when approximately 75% confluent. Cells were identified as endothelial in nature by characteristic cobblestone morphology, contact inhibition of growth upon reaching confluency, and positive immunofluorescent staining for factor VIII:RAg (Miles Laboratories) [S. Schwartz, In Vitro, 14, 966 (1978)]. Only endothelial cells, megakaryocytes and platelets are known to contain the factor VIII:RAg. This method routinely gives a high yield of endothelial cells with little contamination (less than 5%) by smooth muscle cells, pericytes or fibroblasts as judged by phase contrast microscopy as well as by immunostaining.
Adhesion was measured using 96 well microtiter plates adsorbed with three different amounts (0.1; 1.0; and 10.0 μg/per well) of peptides 9, 11-18, BSA and laminin. Cultures of cells which were 60-80% confluent were metabolically labeled for 24 hours with the addition of 3 mCi/ml of ^3 H-amino acid mixture. On the day of the assay, the cells were harvested by trypsinization, the trypsin was inhibited by the addition of serum, and the cells were washed free of this mixture and resuspended in DMEM buffered with HEPES at pH 7.2. The adhesion medium also contained 2 mg/ml BSA. The cells were adjusted to a concentration of 3-4×10^4 /ml and 100 μls of this cell suspension was added to the wells. The assay mixture was then incubated at 37° C for 120 minutes. […] The solubilized cells were then quantitated using a liquid scintillation counter. […]

[2] = target: T1, peptide 9 (Mus musculus, UniProt P02469); experiment: Heparin/peptide interaction specificity, competition on coated peptide 9 (Example 4); type: binding; settings: 3.1 μg per well of peptide 9 coated, FIG. 7
T1 construct: made in house; host or cells: chemical solid-phase (Merrifield) synthesis, no expression host
Method: (§1) To check whether charge was the main factor in the interaction between heparin and peptides 9 and 13, or whether the heparin structure was also critical to this interaction heparin along with two other sulfated glucosaminoglycans, dextran sulfate and chondroitin sulfate were used in competition experiments. A standard amount of 3.1 μg per well of peptide 9 and 12.5 ug per well of peptide 13 were coated on 96-well plates as described above. […] Wells were treated for two hours with 2 mg/ml BSA in wash buffer. Then, a final volume of 50 μls was added to each well, containing a standard amount of 3H-heparin (50,000 cpm per well) and various amounts of non-radioactiveheparin, dextran sulfate and […]. After incubating for two hours at 37° C., the wells were washed and radioactivity was counted as described above in Example 1. […] Therefore, the structure of heparin is a crucial factor for this interaction.

[3] = target: T2, peptide 13 (Mus musculus, UniProt P02469); experiment: Heparin/peptide interaction specificity, competition on coated peptide 13 (Example 4); type: binding; settings: 12.5 ug per well of peptide 13 coated, FIG. 8
T2 construct: polypeptide F13 formally represents isolated laminin residues 1171-1188; made in house; host or cells: chemical solid-phase (Merrifield) synthesis, no expression host
Method: as §1

[4] = Heparin binding to peptides coated on 96-well plastic plates (Example 2); settings: 1 mg/ml to 1 μg/ml, two hours at 37° C., FIG. 5
Method: In order to test the ability of the synthesized peptides (9 and 11-18) to bind to 96-well plastic plates (in which experiments with cultured cell lines can be performed), we did an experiment similar to that described above in Example 1. Stock solutions of peptides 9 and 11-18, laminin and BSA at a maximum concentration of 1 mg/ml were prepared and serially diluted in PBS+NaN3 producing final concentration from 1 mg/ml to 1 μg/ml. Fifty μl from each concentration was coated on the 96-well plates and left to dry overnight at 28° C. Then, wells were treated for two hours with […] of 2 mg/ml BSA in 6 mM phosphate, 100 mM NaCl, 68 μM CaCl2, pH 6.8 (wash buffer) in order to minimize non-specific binding. Next 50 μls of ^3 H-heparin (10 μg/ml) was added (50,000 cpm/well) for two hours at 37° C. The wells were then washed three times with wash buffer containing 0.05% Triton X-100 and finally they were incubated for thirty minutes at 60 C with 200 μl of 0.5 N NaOH and 1% SDS. The amount of ^3 H-heparin bound at each peptide concentration was quantitated as described above in Example 1.

T1 sequence (P02469 662-681 limits assumed): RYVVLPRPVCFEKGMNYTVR

binding of ^3 H-heparin [4]	Molecule	endothelial cell adhesion [1]	molar concentration needed for 50% inhibition of ^3 H-heparin binding, relative to heparin [2]	molar concentration needed for 50% inhibition of ^3 H-heparin binding, relative to heparin [3]
–	CC[C@H](C)[C@H](NC(=O)[C@H](Cc1ccc(O)cc1)NC(=O)CNC(=O)[C@@H]1CCCN1C(=O)[C@H](CC(=O)O)NC(=O)[C@H](CS)NC(=O)[C@@H](N)C(C)C)C(=O)NCC(=O)N[C@@H](CO)C(=O)N[C@@H](CCCNC(=N)N)C(=O)O [Peptide F18, VCDPGYIGSR] (H-VCDPGYIGSR-OH)	potent promoters of endothelial cell adhesion	–	–
–	dermatan sulfate	–	Ten to one hundred times more molar concentration	Ten to one hundred times more molar concentration
–	dextran sulfate	–	Ten to one hundred times more molar concentration	Ten to one hundred times more molar concentration
–	VEGVEGPRCDKCTRGY [Peptide F12, 16-mer, laminin B1 chain aa 1133-1148]	potent promoters of endothelial cell adhesion	–	–
bind heparin very well	laminin	–	–	–
